Columns and labels:
[1] = system: Bak−/− and DKO A549 cells; assay: apoptotic cell death in Bak knockout cells; type: cell-based, human
Source text: Bak is a pro-apoptotic protein required for programmed cell death and apoptosis induction in cancer cells. […] Experiments indicate that BKA-073 directly binds to Bak protein and induces Bak oligomerization in mitochondria leading to activation of a proapoptotic function. Experiments indicate that BKA-073-induced Bak oligomerization promotes mitochondrial priming and Cyt c release, which are early changes in net pro-apoptotic signaling at the mitochondria. BKA-073-induced mitochondrial priming and Cyt c release leads to apoptotic cell death of lung cancer cells.
Several Bax/Bak-independent mechanisms of apoptotic cell death have been described. […] It is contemplated that, in addition to the major Bak-dependent apoptosis mechanism, BKA-073 induces a small proportion of apoptotic cell death (about 20%) through Bax/Bak-independent mechanism(s).

[2] = system: A549 lung cancer xenografts; assay: A549 lung cancer xenografts; type: in vivo
Method: Nu/Nu mice bearing A549 lung cancer xenografts were treated with increasing doses of BKA-073 (5 to 15 mg/kg/d) i.p. for 28 days. Tumor volume was measured once every 2 days. After treatment, mice were sacrificed, and tumors were removed and analyzed.
To test the potency of BKA-073 in vivo, mice carrying lung cancer xenografts derived from A549 cells were treated i.p. with increasing doses (0, 5, 10, 15 mg/kg/d) of BKA-073 for 28 days. […] To assess whether BKA-073 induced suppression of tumor growth occurs through activation of Bak and apoptosis in vivo, representative samples from harvested tumor tissues were analyzed by cross-linking with BMH for Bak oligomerization or by immunohistochemistry (IHC) for active caspase 3. […] Doses between 5 mg/kg and 15 mg/kg provide an optimal therapeutic index for BKA-073 for in vivo experimentation involving lung cancer xenografts.

[3] = system: KRAS G12D LKB1fl/fl (KL) mice; assay: mutant KRAS-driven lung cancer GEMM; type: in vivo; conditions: 15 mg/kg/d i.p., control 4 of 6, p<0.01
Method: After administration of adenovirus Cre recombinase in KRAS G12D LKB1fl/fl (KL) mice for 6 weeks, KL mice were treated with KRA-073 (15 mg/kg/d) i.p. for 48 days (n=6 mice/group). Survival of mice is shown for up to 48 days before euthanization in the control group versus the BKA-073 treatment group.
To assess the potency of BKA-073 in KRAS mutant driven lung cancer, lox-stop-lox (LSL)-KRAS G12D LKB1fl/fl (i.e. KL) mice were generated and bred. These mice contain a KRAS G12D LSL knock-in allele and a floxed allele of LKB1 (LKB1fl/fl). Primary lung adenocarcinoma was detectable as early as 6 weeks after intranasal administration of 5×10^6 pfu adenovirus expressing Cre recombinase (AdeCre) in KRAS G12D LKB1fl/fl (KL) mice.
To further assess the potential of BKA-073 as therapy for mutant KRAS-driven lung cancer, BKA-073 (15 mg/kg/d) or vehicle was administered to KL mice i.p. starting at 6 weeks post AdeCre delivery. […] To quantify tumor burden and tumor multiplicity in mice, H&E-stained lungs were imaged with morphometric software to quantify the surface area composed of tumor as opposed to normal tissue compared with the control group. There were 4 deaths out of 6 mice in the control group versus 2 deaths out of 6 mice in the BKA-073 treatment group (p<0.01), calculated up to 48 days before euthanization (FIG. 5).

## COc1ccc2nc3ccccc3c(NCCNCC(C)O)c2c1 (stereo not shown) [BKA-073, 1-((2-((2-methoxyacridin-9-yl)amino)ethyl)amino)propan-2-ol]
[1]
  apoptotic cell death: about 20%
[2]; 5 to 15 mg/kg/d
  tolerability: well tolerated without significant toxicity
[2]; dose range between 5 and 15 mg/kg/day
  weight loss and organ toxicities: without weight loss or significant organ toxicities
[3]
  deaths up to 48 days: 2 deaths out of 6 mice

From US20240342157A1, “BAK ACTIVATORS, PHARMACEUTICAL COMPOSITIONS, AND USES IN TREATING CANCER” (Emory University, priority 2021, published 2024)
